Measurements reported in PubChem BioAssay (NCI).
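All cell lines were grown in 96-well plates and treated with compound for 48 hours. TGI: concentration producing complete growth inhibition.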

Experiments:
Test in all cases: growth of human tumour cells (NCI), 48 h
[1] = test system: 786-0 renal
[2] = test system: A498 renal
[3] = test system: A549 NSCLC
[4] = test system: ACHN renal
[5] = test system: BT-549 breast
[6] = test system: CAKI-1 renal
[7] = test system: CCRF-CEM leukemia
[8] = test system: COLO 205 colon
[9] = test system: DU-145 prostate
[10] = test system: EKVX NSCLC
[11] = test system: HCT-116 colon
[12] = test system: HCT-15 colon
[13] = test system: HL-60(TB) leukemia
[14] = test system: HOP-62 NSCLC
[15] = test system: HOP-92 NSCLC
[16] = test system: HS 578T breast
[17] = test system: HT29 colon
[18] = test system: IGROV1 ovarian
[19] = test system: K-562 leukemia
[20] = test system: KM12 colon
[21] = test system: LOX IMVI melanoma
[22] = test system: M14 melanoma
[23] = test system: MCF7 breast
[24] = test system: MDA-MB-231 breast
[25] = test system: MDA-MB-435
[26] = test system: MDA-N
[27] = test system: MOLT-4 leukemia
[28] = test system: NCI-H226 lung
[29] = test system: NCI-H23 lung
[30] = test system: NCI-H460 lung
[31] = test system: NCI/ADR-RES ovarian
[32] = test system: OVCAR-3 ovarian
[33] = test system: OVCAR-5 ovarian
[34] = test system: OVCAR-8 ovarian
[35] = test system: PC-3 prostate
[36] = test system: RPMI-8226 leukemia
[37] = test system: SF-268 CNS
[38] = test system: SF-295 CNS
[39] = test system: SF-539 CNS
[40] = test system: SK-MEL-2 melanoma
[41] = test system: SK-MEL-28 melanoma
[42] = test system: SK-MEL-5 melanoma
[43] = test system: SK-OV-3 ovarian
[44] = test system: SN12C renal
[45] = test system: SNB-19 CNS
[46] = test system: SNB-75 CNS
[47] = test system: SR leukemia
[48] = test system: SW-620 colon
[49] = test system: T-47D breast
[50] = test system: TK-10 renal
[51] = test system: U251 CNS
[52] = test system: UACC-257 melanoma
[53] = test system: UACC-62 melanoma
[54] = test system: UO-31 renal
[55] = test system: HCC-2998 colon
[56] = test system: MALME-3M melanoma
[57] = test system: NCI-H522 lung
[58] = test system: OVCAR-4 ovarian
[59] = test system: RXF 393 renal

CC(=O)/C(N=Nc1ccc(-n2c(C)nc3ccc(Br)cc3c2=O)cc1)=C(/C)O
TGI [1]: > 100 µM | TGI [2]: > 100 µM | TGI [3]: > 100 µM | TGI [4]: > 100 µM | TGI [5]: > 100 µM | TGI [6]: > 100 µM | TGI [7]: > 100 µM | TGI [8]: > 100 µM | TGI [9]: > 100 µM | TGI [10]: > 100 µM | TGI [11]: > 100 µM | TGI [12]: > 100 µM | TGI [13]: > 100 µM | TGI [14]: > 100 µM | TGI [15]: > 100 µM | TGI [16]: 91.2 µM | TGI [17]: > 100 µM | TGI [18]: > 100 µM | TGI [19]: > 100 µM | TGI [20]: > 100 µM | TGI [21]: > 100 µM | TGI [22]: > 100 µM | TGI [23]: > 100 µM | TGI [24]: > 100 µM | TGI [25]: > 100 µM | TGI [26]: > 100 µM | TGI [27]: > 100 µM | TGI [28]: > 100 µM | TGI [29]: > 100 µM | TGI [30]: > 100 µM | TGI [31]: > 100 µM | TGI [32]: > 100 µM | TGI [33]: > 100 µM | TGI [34]: > 100 µM | TGI [35]: > 100 µM | TGI [36]: > 100 µM | TGI [37]: > 100 µM | TGI [38]: > 100 µM | TGI [39]: > 100 µM | TGI [40]: > 100 µM | TGI [41]: > 100 µM | TGI [42]: > 100 µM | TGI [43]: > 100 µM | TGI [44]: > 100 µM | TGI [45]: > 100 µM | TGI [46]: 77 µM | TGI [47]: > 100 µM | TGI [48]: > 100 µM | TGI [49]: > 100 µM | TGI [50]: > 100 µM | TGI [51]: > 100 µM | TGI [52]: > 100 µM | TGI [53]: > 100 µM | TGI [54]: > 100 µM

C=C1C(=O)CCC1C(=O)O (stereo unspecified)
TGI [1]: > 100 µM | TGI [2]: > 100 µM | TGI [3]: > 100 µM | TGI [4]: > 100 µM | TGI [5]: > 100 µM | TGI [7]: > 100 µM | TGI [8]: > 100 µM | TGI [9]: > 100 µM | TGI [10]: > 100 µM | TGI [55]: > 100 µM | TGI [11]: > 100 µM | TGI [12]: > 100 µM | TGI [13]: > 100 µM | TGI [14]: > 100 µM | TGI [16]: > 100 µM | TGI [17]: > 100 µM | TGI [18]: > 100 µM | TGI [19]: > 100 µM | TGI [20]: > 100 µM | TGI [21]: > 100 µM | TGI [22]: > 100 µM | TGI [56]: > 100 µM | TGI [23]: > 100 µM | TGI [24]: > 100 µM | TGI [25]: > 100 µM | TGI [26]: > 100 µM | TGI [27]: > 100 µM | TGI [28]: > 100 µM | TGI [29]: > 100 µM | TGI [30]: > 100 µM | TGI [57]: > 100 µM | TGI [31]: > 100 µM | TGI [32]: > 100 µM | TGI [58]: > 100 µM | TGI [33]: > 100 µM | TGI [34]: > 100 µM | TGI [35]: > 100 µM | TGI [36]: > 100 µM | TGI [59]: > 100 µM | TGI [37]: > 100 µM | TGI [38]: > 100 µM | TGI [39]: > 100 µM | TGI [40]: > 100 µM | TGI [41]: > 100 µM | TGI [42]: > 100 µM | TGI [43]: > 100 µM | TGI [44]: > 100 µM | TGI [45]: > 100 µM | TGI [46]: > 100 µM | TGI [47]: > 100 µM | TGI [48]: > 100 µM | TGI [49]: > 100 µM | TGI [50]: > 100 µM | TGI [51]: > 100 µM | TGI [52]: > 100 µM | TGI [53]: > 100 µM | TGI [54]: > 100 µM
